Entries after “also recorded” stand apart in the source; their conditions may differ.

One assay deals with patients with ALS. Particulars: cited from earlier work.
Another assay has as its system ALS motor neurons. The assay is described as follows: ALS motor neurons, summary of axon and neurofilament findings. It counts as cell-based, human. Particulars: 72 hrs after addition of gastrodin. The procedure: (§1) The gastrodin was diluted with dimethyl sulfoxide (DMSO) to 10 mM, added to the motor neurons differentiated at Day 25, Day 35 and Day 45 at a dosage ratio of 1:1,000, and cultured for 72 hours (hrs) for various assays.

For assay [1], the system named is B6SJL-Tg (SOD1*G93A) 1Gur/J transgenic mice. The assay is described as follows: ALS model mice: motor abilities, BBB score and survival. It counts as in vivo. From the text:
The mice began to develop limb onsets in 80 to 90 days after birth, gradually lose ability to walk, and muscle weakness and atrophy started spreading to the upper parts of body. Most of their voluntary muscles became paralyzed and death after 110 to 120 days due to gradual loss of chewing ability and respiratory failure. The pathological characteristics include symptoms of amyotrophic lateral sclerosis such as muscular dystrophy, synaptic loss of motor neurons, degeneration and death of motor neurons, dismantling of the neuromuscular junction, etc.
Sixty days after birth, the ALS model mice (B6SJL-Tg (SOD1*G93A) 1Gur/J) were administered with gastrodin cycles once every 30 days as a single cycle, and 5 intraperitoneal injection of gastrodin was administered (with one day interval between every two intraperitoneal injections) at the first 10 days. No injection was administered during the subsequent 20 days. A total of two cycles of dosing may be performed until 120 days after birth.
The Example tested whether gastrodin improved the ALS symptoms of transgenic mice.
In this Example, beginning at 60 days after birth, the mice were administered with gastrodin by intraperitoneal injection at a dose of 50 mg/kg or 200 mg/kg for 5 times (with one day interval) every 30 days, until the mice degenerated severely to the extent that the hind lambs lost motor ability completely and until sacrificed. In this Example, motor abilities were tested, and survival time was recorded in days.

A further assay relates to SOD1^D90A motor neurons. The assay is described as follows: Calcium ion image analysis after KCl and glutamate stimulation. It is filed as cell-based, human. As to the method:
as §1
Cells were seeded on a Geltrex®-coated round glass slide having a diameter of 10 mm, and cultured in a neurobasal medium supplemented with RevitaCell® and compound E for 3 days. 1 μM calcium fluorescent probe Fluo-4 solution was prepared in a physiological buffer containing […], 5 mM KCl, 2 mM CaCl2, 2 mM MgCl2, 10 mM glucose and 10 mM HEPES, and the glass slide on which the cells were seeded was transferred into the 1 μM Fluo-4 solution and cultured at 37° C. for 4 min. The glass slide was transferred into a physiological buffer and cultured at 37° C. for 20 min. The glass slide with cells seeded thereon was transferred into a calcium imaging chamber for imaging under perfusion.
Images were taken under perfusion with a physiological buffer for 30 seconds, then under perfusion with 60 mM KCl for 1 min, and then under perfusion with a physiological buffer for 5 min. Next, images were taken under perfusion with 1 mM glutamate for 1 min, and then under perfusion with a physiological buffer for 5 min. Images were captured with a microscope (Nikon ECLIPSE Ti2-E) and analyzed using NIS-Elements AR software. […]

The subject of assay [2] is SOD1^G85R ALS motor neurons. The assay is described as follows: NF staining of SOD1^G85R ALS iPSC-differentiated motor neurons. To be noted: 10 μM gastrodin, 72 hrs, vs untreated. It counts as cell-based, human. The procedure:
as §1
(§2) A 4-well culture slide with a glass cover placed thereon was coated with 1% Geltrex®, placed at 37° C. for at least 3 to 4 hrs, washed with phosphate buffered saline (PBS) once after removal of the Geltrex®, and soaked in a culture medium until use. The embryoid bodies were dissociated with enzymes or mechanical force into smaller pieces, seeded on the 4-well culture slide, and cultured for 3 days (optionally for a longer period). […]
(§3) Thereafter, the cells were labeled via nuclear staining by adding 200 μL of 4′,6-diamidino-2-phenylindole (DAPI) (1 μg/mL), reacting in dark for 5 to 15 min at room temperature, removing DAPI, washing with PBST twice for 5 min each, removing PBST, adding PBS to maintain the cell moisture, lifting the glass coverslip with a needle tip, reversing the glass coverslip to the side with 50% glycerol or a mounting gel, storing in dark at 4° C., observing with a fluorescence microscope or a confocal microscope and photographing, and subsequently quantifying the numbers of neurofilaments and nerve fiber beads using an OLYMPUS cellSens Dimension Desktop 2.3 software. […]

Assay [3] concerns SOD1^D90A ALS motor neurons. The assay is described as follows: NF staining of SOD1^D90A ALS iPSC-differentiated motor neurons. It counts as cell-based, human. Particulars: for efficacy on increasing number of nerve fibers, gastrodin compared with riluzole / reduction of spherical nerve fiber beads, gastrodin compared with riluzole: comparison of gastrodin and riluzole. As to the method:
as §1
A 4-well culture slide with a glass cover placed thereon was coated with 1% Geltrex®, placed at 37° C. for at least 3 to 4 hrs, washed with phosphate buffered saline (PBS) once after removal of the Geltrex®, and soaked in a culture medium until use. The embryoid bodies were dissociated with enzymes or mechanical force into smaller pieces, seeded on the 4-well culture slide, and cultured for 3 days (optionally for a longer period). After the cells adhered and extended outwards to present rosettes with a neural tube-like or a neuronal morphology, the immunofluorescent staining was then performed.
For the immunofluorescent staining, the medium was firstly removed, and then the cells were washed with PBS at room temperature twice. Next, 200 μL of 4% paraformaldehyde was added to the cells, and the mixture was reacted at room temperature for 5 to 15 min to fix the cells. The cells were washed with PBS for 3 times for 5 min each, and 200 μL of 99% methanol or 0.3% Triton® was added. The mixture was incubated for 5 to 15 min at 4° C., and the liquid was removed after permeabilization. The methanol, if used for fixation, was volatilized out. Then, the mixture was washed with PBS for 3 times (each for 5 min), and 200 μL of 5% horse serum was added at room temperature for at least 1 hr for blocking. […] The primary antibody was removed after conjugation for 16 hrs, followed by washing with PBS and Tween® 20 (abbreviated as PBST hereinafter) for 3 times for 5 min each, and a secondary antibody (prepared in PBS at a concentration of 1:500) was added. The secondary antibody was kept in dark for 1 hour at room temperature. After removal of the secondary antibody, the mixture was washed 3 times with PBST for 5 min each.
Thereafter, the cells were labeled via nuclear staining by adding 200 μL of 4′,6-diamidino-2-phenylindole (DAPI) (1 μg/mL), reacting in dark for 5 to 15 min at room temperature, removing DAPI, washing with PBST twice for 5 min each, removing PBST, adding PBS to maintain the cell moisture, lifting the glass coverslip with a needle tip, reversing the glass coverslip to the side with 50% glycerol or a mounting gel, storing in dark at 4° C., observing with a fluorescence microscope or a confocal microscope and photographing, and subsequently quantifying the numbers of neurofilaments and nerve fiber beads using an OLYMPUS cellSens Dimension Desktop 2.3 software.
In this Example, SOD1^D90A ALS iPSCs-differentiated motor neurons were used for comparing the efficacies of gastrodin and riluzole on improvement of ALS symptoms.

Assay [4] concerns sALS iPSC-differentiated motor neurons. The experiment in a line: NF staining of motor neurons differentiated from sporadic ALS iPSCs. It is filed as cell-based, human. Particulars: after treatment with gastrodin. The procedure:
as §1, §2, §3

Where [5] appears, read: intraperitoneal gastrodin from day 60, vs control.
[6] abbreviates: 10 μM gastrodin, 72 hrs, NF staining, vs untreated.

As for `CC1=NN(c2ccccc2)C(=O)C1` [Edaravone, edaravone], in the assay on patients with ALS, the “degeneration rate of motor ability” value is “can alleviate”.

As for `OCc1ccc(O[C@@H]2O[C@H](CO)[C@@H](O)[C@H](O)[C@H]2O)cc1` [gastrodin], in the assay with ALS motor neurons, the neural axons entry was “Increased” and the neurofilament accumulation result is given as “reduced”. Moreover, in assay [1] (50 mg/kg or 200 mg/kg intraperitoneal, 5 times every 30 days from day 60, vs control), the roller residence time result is “obviously longer than that of the control; also recorded: increased”. In addition, in assay [1] (after injection of gastrodin), the “loss of motor ability” value is given as “obviously delayed”, the mortality rate result is given as “reduced” and the “symptoms at an earlier stage” value was “delayed”. Further, in assay [1] (compared to the control group), the “suppression on loss of active ability, improvement” value was “about 20 days”. Moreover, in assay [1] (setting [5]), the BBB scores result is reported as “retarded the decrease”, the “extension of life / overall survival time” value is 10 days and the “gripping strength of the hind limbs” value is “clearly increased”. Besides, the “response of ALS motor neurons to KCl” value with SOD1^D90A motor neurons (KCl stimulation) was “promoted”. In addition, the “oversensitive response to glutamate (calcium ion flow)” value in the assay with SOD1^D90A motor neurons (treatment for 72 hrs, 1 mM glutamate stimulation) was “significantly decreased”. The “amount of nerve fibers” value in assay [2] was “significantly increase”. Besides, in assay [3] (setting [6]), the “amount of nerve fibers” value was “increased” and the “spherical nerve fiber beads” value is reported as “significantly decreased”. In addition, in assay [3], the “efficacy on increasing number of nerve fibers, gastrodin compared with riluzole” value is on record as “comparable to riluzole” and the “reduction of spherical nerve fiber beads, gastrodin compared with riluzole” value was “by an extent more than riluzole”. In assay [4], the “amount of nerve fibers” value is “increased” and the nerve fiber beads entry is on record as “decreased”.

Consider `Nc1nc2ccc(OC(F)(F)F)cc2s1` [riluzole, reference compound], for which, in assay [3], the “efficacy on increasing number of nerve fibers, gastrodin compared with riluzole” value was “comparable to riluzole” and the “reduction of spherical nerve fiber beads, gastrodin compared with riluzole” value was “by an extent more than riluzole”.

Source of the values: patent publication US11963969B2, “Method for prevention or treatment of amyotrophic lateral sclerosis by administering gastrodin” (BUDDHIST TZU CHI MEDICAL FOUNDATION, priority 2021, dated 2024).
